# Assay results reported in PMC7822874, “Chemoprotective antimalarials identified through quantitative high-throughput screening of Plasmodium blood and liver stage parasites” (Scientific Reports, 2021).
# Where two headings read alike, the source gives them in different places.
# Columns and labels:
# [1] = test system: P. berghei-ANKA-GFP-LucCON liver stage parasites in HepG2-A16-CD81EGFP cells; assay: P. berghei liver stage Pb-Luc assay, Method 1 (UCSD, 1536-well); assay type: cell-based, Plasmodium berghei; details: for activity at 1 µM / activity at 3 µM: 48 h, average of 2 wells on a 1536 well plate; for activity at 1 µM: 1 uM (compounds provided at 10 mM); for activity at 3 µM: 3 uM (compounds provided at 10 mM); for Max Resp (signal direction of the dose response) / AC50 / Log AC50 (M): Method 1; for Max Resp (signal direction of the dose response): Decrease = decreasing P. berghei viability with dose, Increase = increasing signal, Inactive = no dose response
# in vitro = details: human, HepG2-A16-CD81EGFP cells, uninfected
# [2] = test system: Plasmodium falciparum Dd2 asexual blood stage parasites; assay: microbe, parasite or virus in culture; parameters: species or system Plasmodium falciparum Dd2 in human erythrocytes; single determination (one 11-point concentration-response curve); details: Plasmodium falciparum, DD2, Erythrocyte, 72 h; read-out: AC50
# [3] = Plasmodium berghei, column 11, read-out: Pb-Luc (P. berghei liver stage), % of control, lower concentration, first repeat
# [4] = Plasmodium berghei, column 12, read-out: Pb-Luc (P. berghei liver stage), % of control, lower concentration, second repeat
# [5] = Plasmodium berghei, column 8, read-out: Pb-Luc (P. berghei liver stage), % of control, higher concentration, first repeat
# [6] = Plasmodium berghei, column 9, read-out: Pb-Luc (P. berghei liver stage), % of control, higher concentration, second repeat
# [7] = Hill fit, 50% of maximum activity response, read-out: AC50
# [8] = log10 of molar AC50 from Hill fit
# [9] = Plasmodium berghei, Hill fit, 50% of maximum activity response, read-out: AC50
# [10] = Plasmodium berghei, log10 of molar AC50 from Hill fit, read-out: Log AC50 (converted)
Compound,"activity at 1 µM [1, 3] [%]","activity at 1 µM [1, 4] [%]","activity at 3 µM [1, 5] [%]","activity at 3 µM [1, 6] [%]","viability at 48 h, 1 µM (in vitro) [%]","viability at 48 h, 3 µM (in vitro) [%]",AC50 [2] [µM],Max Resp (signal direction of the dose response) [1],"AC50 [1, 7] [µM]","Log AC50 (M) [1, 8] [M]","AC50 [1, 9] [µM]","AC50 [1, 10] [µM]",viability at 66 h (in vitro) [%],viability at 48 h (in vitro) [%]
C=C(C)COc1ccc(-c2ncnc(C(F)(F)F)c2-c2ccc(OC)cc2)c(O)c1 [MLS001216205-01],120,94,111,99,89,104,2.99,,,,,,,
O=C(Nc1cccnc1)c1cc(-c2cccnc2)nc2ccc(Br)cc12 [MLS000582206-01],112,106,80,95,109,104,2.66,,,,,,,
COCC(C)n1c(C)cc(C(=O)CSc2nnc(Nc3ccccc3F)s2)c1C (stereo not drawn) [MLS000566129-01],126,124,118,120,95,101,2.99,,,,,,,
CCOc1ccc(NC(=O)CN2C(=O)NC(C)(c3ccc(OC(F)F)cc3)C2=O)cc1 (stereo not drawn) [MLS001193353-01],120,108,48,87,109,103,9.44,,,,,,,
COc1cccc(NC(=O)CN(C)C(=O)c2ccc(-c3ccc(Cl)cc3)o2)c1 [MLS001142098-01],146,155,150,187,100,100,4.22,,,,,,,
OCCNc1nc(Nc2ccc(Br)cc2)nc2ccccc12 [MLS000625070-01],,,,,,,2.66,Decrease,2.24,-5.650,1.41,1.41,97,
COc1ccc(S(=O)(=O)N2CCC3(CC2)OCCN3S(=O)(=O)c2c(C)cc(C)cc2C)cc1 [MLS001237293-01],88,81,87,75,108,103,2.66,,,,,,,
COc1ccc(C)cc1N(C(=O)COc1cccc(F)c1)c1nc2ccccc2s1 [MLS000394477-01],105,106,107,110,91,106,5.96,,,,,,,
CCCCCCCNC(=O)C1(CC2CC(c3ccc(Cl)cc3)=NO2)CCN(C(=O)c2cc(OCC)c(OCC)c(OCC)c2)CC1 (stereo not drawn) [MLS001143958-01],,,,,103,,3.35,Decrease,,,2.82,2.82,,103
Cc1ccc(Oc2ccc(NC(=O)c3ccco3)cc2)cc1 [MLS000111237-01],,,,,,,10.6,Decrease,0.158,-6.800,0.1,0.1,95.1,
CCOC(=O)c1nnn(-c2nonc2-n2cccc2)c1CN1CCC(C(=O)OCC)CC1 [MLS000538888-01],103,96,92,82,108,103,4.73,,,,,,,
Cc1ccc(C)c(NC(=O)CN(C)C(=O)c2ccc(-c3ccc(Cl)cc3)o2)c1 [MLS001077062-01],137,128,154,145,98,102,4.73,,,,,,,
CC(C)COc1ccc(C(=O)N/C(=C\c2cccc([N+](=O)[O-])c2)C(=O)OC(C)C)cc1 [MLS000574251-01],90,84,65,69,111,102,0.531,,,,,,,
O=C(CN1CCN(C(=O)c2ccco2)CC1)Nc1cc(Cl)ccc1Cl [MLS000122513-01],,,,,,,5.96,Inactive,,,,,97.6,
COc1ccccc1CNCC(O)(c1ccc(Cl)cc1)c1ccc(Cl)cc1 [MLS000325719-01],101,103,108,98,95,101,1.5,,,,,,,
Oc1ccccc1Nc1nc(NCc2ccco2)c2ccccc2n1 [MLS000693437-01],,,,,95.6,,2.99,Inactive,,,,,,95.6
COc1cc(Cl)c(C)cc1NC(C)C(=O)Nc1cc(C(F)(F)F)ccc1N1CCOCC1 (stereo not drawn) [MLS000375301-01],124,129,103,103,109,94,0.422,,,,,,,
CCn1cc(C(=O)N[C@@H](CCSC)C(=O)NC(C)(C)CO)c(=O)c2cc3c(cc21)OCO3 [MLS001201727-01],,,,,103,,2.99,Inactive,,,,,,103
CCOC(=O)CCCCC(=O)c1[nH]c(=O)[nH]c1Cn1ccnc1 [MLS000092014-01],140,105,84,105,98,107,2.66,,,,,,,
CCOC(=O)c1c(NC(=O)c2ccccc2)sc2c(O)c(CN(CC)CC)ccc12 [MLS000523141-01],104,107,99,98,91,102,0.15,,,,,,,
COc1ccc(NC(=O)CN(C)C(=O)c2oc3c(ccc4ccccc43)c2C)cc1 [MLS002182882-01],160,170,88,114,110,104,0.531,,,,,,,
O=C(Nc1ccc(-c2csc(Nc3ccccc3)n2)cc1)c1cc([N+](=O)[O-])cc(C(F)(F)F)c1 [MLS000911606-01],,,,,,,2.11,,,,2.82,2.82,104,
Cc1ccc(NC(=O)c2cc(C(=O)c3cc(Cl)ccc3O)cn(-c3ccc(C)cc3)c2=O)cc1 [MLS000374606-01],98,87,59,61,106,93,0.422,,,,,,,
